Measured values: PMC10908709, “3-styrylcoumarin scaffold-based derivatives as a new approach for leishmaniasis intervention: biological and molecular modeling studies” (Journal of Parasitic Diseases: Official Organ of the Indian …, 2024)
Values joined by “and” are separate entries in the source; they are usually repeats but may differ in a detail not shown here. Equal entries are not always repeated.

Tests used:
[1] = test system: axenic amastigote forms of L. panamensis; set-up: method as in Arango et al. 2010; details: ref Arango et al. 2010; cited from earlier work
[2] = test system: intracellular amastigotes of L. (V) panamensis; test: In vitro antileishmanial activity on intracellular amastigotes (GFP parasites, flow cytometry); assay type: cell-based, Leishmania (Viannia) panamensis; details: for inhibition at 20 µg/mL: U-937, 72 h, infected U-937 cells, read-out: Inhibition intracellular amastigotes growth (%)
[3] = test system: intracellular amastigotes of L. (V) panamensis; test: as above; assay type: cell-based, Leishmania (Viannia) panamensis; details: for EC50: read-out: Anti-leishmanial activity on intracellular amastigotes EC50 (converted); for SI (selectivity index = LC50/EC50): U-937 LC50 / amastigote EC50
Description: The activity of compounds was evaluated on intracellular amastigotes of L. (V) panamensis transfected with the green fluorescent protein gene (MHOM/CO/87/UA140-EGFP) (Pulido et al. [2012]). The effect of each compound was determined according to the inhibition of the infection evidenced by both, decrease of the infected cells and decrease of intracellular parasite amount. Briefly, U-937 human cells at a concentration of 3 × 10^5 cells/mL in RPMI 1640 containing 0.1 μg/mL of phorbol-12-myristate-13-acetate (PMA) were dispensed into each one of a 24-well cell culture plate and then infected with 5 day-old promastigotes in a 15:1 parasites per cell ratio. Plates were incubated at 34 °C, 5% CO2 during 3 h and cells were washed two times with PBS to eliminate non internalized parasites. One mL of fresh complete RPMI 1640 medium supplemented with 10% FBS and 1% antibiotics was added into each well, cells were incubated again to guarantee multiplication of intracellular parasites. After 24 h of infection, culture medium was replaced by fresh culture medium containing each compound at 50–6.12 and 1.56 μg/mL and plates were incubated at 37 °C, 5% CO2. After 72 h, inhibition of the infection was determined. For this, cells were removed from the bottom plate with a trypsin/EDTA (250 mg) solution; recovered cells were centrifuged at 1100 rpm during 10 min at 4 °C, the supernatant was discarded and cells were washed with 1 mL of cold PBS and centrifuged at 1100 rpm during 10 min at 4 °C. The supernatant was discarded and cells were suspended in 500 μL of PBS and analyzed by flow cytometry (FC 500MPL, Cytomics, Brea, CA, US). All determinations for each compound including standard drugs were carried out by triplicate, in two independent experiments. Activity of the tested compounds was carried out in parallel with infection progress in culture medium alone and in culture medium with amphotericin B as antileishmanial drugs (positive controls).
Antileishmanial activity was determined according to percentage of infected cells and parasite amount obtained for each experimental condition by flow cytometer. The percentage of infected cells was determined as the number of positive events by green fluorescence (parasites) in y-axis and Forward Scatte in x-axis. Then, the parasitic load in those infected cells was determined by a histogram of the mean fluorescence intensity (MFI) of those fluorescent parasites (Pulido et al. [2012]).
Parasitemia inhibition was calculated by Eq. 2, where the MFI of control corresponds to 100% of parasitemia. In turn, inhibition percentage corresponds to 100% Parasitemia.

[4] = In vitro cytotoxicity, MTT assay; assay type: cell-based; details: human
Description: (§1) Cytotoxic activity of the studied compounds was assessed in the human promonocytic U-937 cells (ATCC CRL-1593.2™) based on viability evaluated by the MTT (3-(4,5-dimethylthiazol-2-yl)-2,5-diphenyltetrazolium bromide) assay as described elsewhere (Taylor et al. [2011]). Briefly, U-937 cells grown in tissue flasks were harvested and washed with phosphate buffered saline (PBS) by centrifugation. Cells were counted and adjusted at 1 × 10^6 cells/mL of complete culture medium (RPMI-1640 supplemented with 10% Fetal Bovine Serum-FBS and 1% of antibiotics (100 ug/mL penicillin and 0.1 mg/mL streptomycin). One hundred µL of cell suspension were dispensed into each well of a 96-well cell-culture plate and then 100 µL of two-fold serial dilutions of the compounds (starting at 200 µg/mL) in complete RPMI 1640 medium were added. Plates were incubated at 37 °C, under 5% CO2 atmosphere during 72 h. Then, 10 µL of MTT solution (0.5 mg/mL) were added into each well, and plates were then incubated at 37 °C for 3 h. The formazan crystals were dissolved by adding 100 µL/well of dimethyl sulfoxide and 30 min incubation. Cell viability was determined according to the intensity of color (absorbance) registered as optical densities (O.D) obtained at 570 nm in a Varioskan™ Flash Multimode Reader-ThermoScientific, USA spectrophotometer. Cells cultured in absence of compounds were used as control of viability (negative control), while doxorrubicin was used as control for cytotoxic drugs. Non-specific absorbance was corrected by subtracting the O.D of the blank. Assays were conducted in two independent runs with three replicas per each concentration tested.
(§2) Cytotoxicity was determined according to cell growth (viability) and mortality percentages obtained for each isolated experiment (compounds, doxorubicin and culture medium). Results were expressed as 50 lethal concentrations (LC50), corresponding to the concentration necessary to eliminate 50% of cells, calculated by Probit analysis (Finney [1978]). Percentage of viability was calculated by Eq. 1, where the optical density (O.D) of control corresponds to 100% of viability (cell growth).1 %Mortality=1-O.D Exposed cells/O.D Control cells×100

SW480 cells = test system: SW480 cells; set-up: method as in Herrera et al. 2018; details: previous study; ref Herrera et al. 2018; cited from earlier work
CHO-K1 cells = test system: CHO-K1 cells; set-up: method as in Herrera et al. 2018; details: previous study; ref Herrera et al. 2018; cited from earlier work
[5] = test system: amastigote forms of L. amazonensis; set-up: method as in Rosa et al. 2017; details: ref Rosa et al. 2017; read-out: IC50 against amastigote forms of L. amazonensis; cited from earlier work
[6] = test system: promastigote forms of L. amazonensis; set-up: method as in Rosa et al. 2017; details: ref Rosa et al. 2017; read-out: IC50 against promastigote forms of L. amazonensis; cited from earlier work
[7] = test system: intracellular amastigotes of L. donovani; set-up: method as in Pierson et al. 2010; details: ref Pierson et al. 2010; cited from earlier work
U-937 cells = test: In vitro cytotoxicity, MTT assay; assay type: cell-based; details: 72 h, MTT
Description: as §1, §2

For `C=C(C)[C@H]1O[C@@H]1c1c(OC[C@H]2OC2(C)C)ccc2ccc(=O)oc12` (relative stereo) [B], the “EC50 against axenic amastigote forms of L. panamensis” value (“EC50 against axenic amastigote forms” below) [1] is listed as 9.9 µg/mL.

For `C[C@@H]1[C@H](O)[C@@H](C)/C=C/C=C/C=C/C=C/C=C/C=C/C=C/[C@H](O[C@@H]2O[C@H](C)[C@@H](O)[C@H](N)[C@@H]2O)C[C@@H]2O[C@](O)(C[C@@H](O)C[C@@H](O)[C@H](O)CC[C@@H](O)C[C@@H](O)CC(=O)O[C@H]1C)C[C@H](O)[C@H]2C(=O)O` [Amphotericin B, reference compound], the inhibition of growth at 0.05 µg/mL ([2]; dose used 0.05 µg/ml, 72 h) was 62.7 ± 1.4%, the EC50 ([3]; 72 h, Probit) was 0.05 µg/mL and 50 nM and the “SI (selectivity index = LC50/EC50)” value [3] was 722. For the same molecule, the CC50 at 72 h [4] was 36.1 µg/mL and 39.1 µM.

In the case of `COc1ccc2ccc(=O)oc2c1-c1cocc1C` [C], the “EC50 against axenic amastigote forms” value [1] is listed as 10.5 µg/mL.

With `CCCCCCCCOc1ccc2c(C)c(/C=C/c3ccc(OC)cc3)c(=O)oc2c1` [Compound 3] the inhibition at 20 µg/mL [2] was 0% and the CC50 at 72 h [4] was > 200 µg/mL and > 549 µM.

With `CCCCCCCCOc1ccc2c(C)c(/C=C/c3ccc(OC)c(OC)c3)c(=O)oc2c1` [Compound 4] the inhibition at 20 µg/mL [2] was 32.5 ± 0.8% and the CC50 at 72 h [4] was 26 µg/mL and 66 µM.

With `CCCCCCCCOc1ccc2c(C)c(/C=C/c3ccc(OC)cc3OC)c(=O)oc2c1` [Compound 5] the inhibition at 20 µg/mL [2] was 3.7 ± 0.8% and the CC50 at 72 h [4] was > 200 µg/mL and > 507 µM.

For `CCCCCCCCOc1ccc2c(C)c(/C=C/c3ccc(O)c(OC)c3)c(=O)oc2c1` [Compound 6], the IC50 (SW480 cells) is given as 26.1 µM, the inhibition at 20 µg/mL [2] is given as > 83% and the IC50 (CHO-K1 cells) is given as 69.8 µM. For the same molecule, the EC50 ([3]; 72 h, Probit) was 15.4 µg/mL and 40.5 µM, the “SI (selectivity index = LC50/EC50)” value [3] was 1.2 and the “Inhibition intracellular amastigotes growth (%)” value ([3]; at 20 µg/ml, 72 h, infected U-937 cells) was 83.5 ± 5.0%. For the same molecule, the IC50 ([3]; read-out: IC50 against L. (V.) panamensis amastigotes (abstract)) was 40.5 µM and the CC50 at 72 h [4] was 19.7 µg/mL and 51.8 µM.

For `CCCCCCCCOc1ccc2c(C)c(/C=C/c3cc(OC)ccc3OC)c(=O)oc2c1` [Compound 7], the inhibition at 20 µg/mL [2] was 7.1 ± 1.5% and the CC50 at 72 h [4] was > 200 µg/mL and > 507 µM.

In the case of `CCCCCCCCOc1ccc2c(C)c(/C=C/c3cc(OC)c(O)c(OC)c3)c(=O)oc2c1` [Compound 8], the inhibition of growth at 1 µg/mL ([2]; dose used 1.0 µg/ml, 72 h) is reported as 0% and the CC50 at 72 h [4] is reported as 1 µg/mL and 2.4 µM.

With `CCCCCCCCOc1ccc2c(C)c(/C=C/c3ccc4c(c3)OCO4)c(=O)oc2c1` [Compound 9] the inhibition at 20 µg/mL [2] was 0% and the CC50 at 72 h [4] was > 200 µg/mL and > 529 µM.

In the case of `C=C(C)C1OC1c1c(OC)ccc2ccc(=O)oc12` (centres unmarked) [D], the “EC50 against axenic amastigote forms” value [1] is given as 14.1 µg/mL.

In the case of `CC(=O)OC[C@H]1O[C@@H](Oc2ccc3c(-c4ccccc4)cc(=O)oc3c2)[C@H](OC(C)=O)[C@@H](OC(C)=O)[C@@H]1OC(C)=O` [E], the IC50 [5] is given as 34.9 µM and the IC50 [6] is given as 10 µM.

In the case of `COc1ccc(-c2cc(=O)oc3cc(OC)c(OC)cc23)cc1OC` [F], the IC50 [7] is listed as 1.1 µM.

For Meglumine antimoniate, the “Inhibition intracellular amastigotes growth (%)” value ([3]; 72 h) was 79.4 ± 2.1^ g %, the “Anti-leishmanial activity on intracellular amastigotes EC50” value ([3]; 72 h, Probit) was 9.4 ± 2.1 µg/mL and the EC50 ([3]; 72 h, Probit) was 25.7 µM. The “Cytotoxicity on U-937 cells LC50” value (U-937 cells) was 416.4 ± 66.6 µg/mL and the CC50 (U-937 cells; read-out: Cytotoxicity on U-937 cells LC50 (converted)) was 1140 µM.
